Measurements published in ChEMBL document CHEMBL1201861, “Genomics of Drug Sensitity in Cancer screening data, Wellcome Trust Sanger Institute”.
pIC50: −log10 of the molar value.

What was measured:
Experiment in all cases: cells
Conditions in all cases: Homo sapiens
LB2518-MEL = type: functional, cell-based;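 also: growth inhibition of human LB2518-MEL cells, measured with a cell viability assay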
Description: SANGER: Inhibition of human LB2518-MEL cell growth in a cell viability assay.

LAN-6 = type: functional, cell-based;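 also: growth inhibition of LAN-6 cells, determined with a cell viability assay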
Description: SANGER: Inhibition of human LAN-6 cell growth in a cell viability assay.

IST-SL1 = type: functional, cell-based;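 also: growth inhibition of human IST-SL1 cells, read out with a cell viability assay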
Description: SANGER: Inhibition of human IST-SL1 cell growth in a cell viability assay.

SF-268 = type: functional, cell-based;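 also: growth inhibition of SF-268 cells determined with a cell viability assay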
Description: SANGER: Inhibition of human SF268 cell growth in a cell viability assay.

TE-1 = type: functional, cell-based;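 also: growth inhibition of the human TE-1 cell line, read out with a cell viability assay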
Description: SANGER: Inhibition of human TE-1 cell growth in a cell viability assay.

MPP-89 = type: functional, cell-based;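 also: growth inhibition of human MPP-89 cells, read out with a cell viability assay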
Description: SANGER: Inhibition of human MPP-89 cell growth in a cell viability assay.

MFH-ino = type: functional, cell-based;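 also: growth inhibition of human MFH-ino cells, read out by a cell viability assay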
Description: SANGER: Inhibition of human MFH-ino cell growth in a cell viability assay.

OVCAR-5 = type: functional, cell-based;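 also: growth inhibition of human OVCAR-5 cells, read out with a cell viability assay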
Description: SANGER: Inhibition of human OVCAR-5 cell growth in a cell viability assay.

SHP77 = type: functional, cell-based, SHP-77;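 also: growth inhibition of human SHP-77 cells measured by a cell viability assay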
Description: SANGER: Inhibition of human SHP-77 cell growth in a cell viability assay.

UACC-257 = type: functional, cell-based
Description: SANGER: Inhibition of human UACC-257 cell growth in a cell viability assay.

HCE-T = type: functional, cell-based;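 also: cell viability assay read-out, reporting inhibition of HCE-T cell growth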
Description: SANGER: Inhibition of human HCE-T cell growth in a cell viability assay.

NMC-G1 = type: functional, cell-based;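 also: growth inhibition of the NMC-G1 cell line, measured with a cell viability read-out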
Description: SANGER: Inhibition of human NMC-G1 cell growth in a cell viability assay.

COLO-829 = type: functional, cell-based
Description: SANGER: Inhibition of human COLO-829 cell growth in a cell viability assay.

U2OS = type: functional, cell-based, U-2-OS;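 also: growth inhibition of human U-2-OS cells, determined with a cell viability assay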
Description: SANGER: Inhibition of human U-2-OS cell growth in a cell viability assay.

RPMI-8866 = type: functional, cell-based
Description: SANGER: Inhibition of human RPMI-8866 cell growth in a cell viability assay.

SCC-15 = type: functional, cell-based;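 also: growth inhibition of SCC-15 cells, read out with a cell viability assay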
Description: SANGER: Inhibition of human SCC-15 cell growth in a cell viability assay.

JVM-2 = type: functional, cell-based;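 also: growth inhibition of JVM-2 cells determined by a cell viability assay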
Description: SANGER: Inhibition of human JVM-2 cell growth in a cell viability assay.

SNU-C2B = type: functional, cell-based;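 also: cell viability readout used to measure compound-driven suppression of SNU-C2B cell proliferation, IC50 marking half-maximal growth inhibition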
Description: SANGER: Inhibition of human SNU-C2B cell growth in a cell viability assay.

HCT-116 = type: functional, cell-based
Description: SANGER: Inhibition of human HCT-116 cell growth in a cell viability assay.

NCI-H69 = type: functional, cell-based;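 also: growth inhibition of the cell line, read out with a cell viability assay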
Description: SANGER: Inhibition of human NCI-H69 cell growth in a cell viability assay.

GI-ME-N = type: functional, cell-based;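 also: growth inhibition of human GI-ME-N cells, read out with a cell viability assay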
Description: SANGER: Inhibition of human GI-ME-N cell growth in a cell viability assay.

BHY = type: functional, cell-based;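 also: cell growth inhibition read out by a viability assay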
Description: SANGER: Inhibition of human BHY cell growth in a cell viability assay.

GCIY = type: functional, cell-based;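 also: growth inhibition of the human GCIY cell line, read out by a cell viability assay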
Description: SANGER: Inhibition of human GCIY cell growth in a cell viability assay.

P30-OHK = type: functional, cell-based;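 also: growth inhibition of the P30-OHK cell line, read out with a cell viability assay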
Description: SANGER: Inhibition of human P30-OHK cell growth in a cell viability assay.

NCI-H747 = type: functional, cell-based;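 also: growth inhibition of human NCI-H747 cells, read out by a cell viability assay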
Description: SANGER: Inhibition of human NCI-H747 cell growth in a cell viability assay.

ESS-1 = type: functional, cell-based;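 also: growth inhibition of human ESS-1 cells, read out by a cell viability assay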
Description: SANGER: Inhibition of human ESS-1 cell growth in a cell viability assay.

NB6 = type: functional, cell-based;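 also: growth inhibition of NB6 cells, read out by a cell viability assay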
Description: SANGER: Inhibition of human NB6 cell growth in a cell viability assay.

SW872 = type: functional, cell-based;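 also: growth inhibition of SW872 cells, read out by a viability assay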
Description: SANGER: Inhibition of human SW872 cell growth in a cell viability assay.

MDA-MB-175-VII = type: functional, cell-based
CAS-1 = type: functional, cell-based;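 also: growth inhibition of CAS-1 cells, measured with a cell viability assay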
Description: SANGER: Inhibition of human CAS-1 cell growth in a cell viability assay.

DK-MG = type: functional, cell-based;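 also: growth inhibition of DK-MG cells, read out with a cell viability assay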
Description: SANGER: Inhibition of human DK-MG cell growth in a cell viability assay.

LS-1034 = type: functional, cell-based
Description: SANGER: Inhibition of human LS-1034 cell growth in a cell viability assay.

LS-411N = type: functional, cell-based
K5 = type: functional, cell-based
Description: SANGER: Inhibition of human K5 cell growth in a cell viability assay.

HCE-4 = type: functional, cell-based;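 also: cell viability assay measuring inhibition of growth in the human HCE-4 cell line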
Description: SANGER: Inhibition of human HCE-4 cell growth in a cell viability assay.

NCI-H720 = type: functional, cell-based;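 also: growth inhibition of human NCI-H720 cells determined by a cell viability assay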
Description: SANGER: Inhibition of human NCI-H720 cell growth in a cell viability assay.

NCI-H1581 = type: functional, cell-based;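 also: cell growth inhibition read out by a viability assay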
Description: SANGER: Inhibition of human NCI-H1581 cell growth in a cell viability assay.

ES8 = type: functional, cell-based;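 also: growth inhibition of human ES8 cells, read out with a cell viability assay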
Description: SANGER: Inhibition of human ES8 cell growth in a cell viability assay.

QIMR-WIL = type: functional, cell-based;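 also: growth inhibition of QIMR-WIL cells, read out with a cell viability assay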
Description: SANGER: Inhibition of human QIMR-WIL cell growth in a cell viability assay.

NOS-1 = type: functional, cell-based;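 also: growth inhibition of the human NOS-1 cell line, read out with a cell viability assay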
Description: SANGER: Inhibition of human NOS-1 cell growth in a cell viability assay.

COLO-320-HSR = type: functional, cell-based;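 also: growth inhibition of COLO-320-HSR cells, determined with a cell viability assay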
Description: SANGER: Inhibition of human COLO-320-HSR cell growth in a cell viability assay.

HCC1187 = type: functional, cell-based;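 also: growth inhibition of HCC1187 cells, read out with a cell viability assay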
Description: SANGER: Inhibition of human HCC1187 cell growth in a cell viability assay.

SJSA-1 = type: functional, cell-based;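 also: growth inhibition of human SJSA-1 cells, read out through a cell viability measurement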
Description: SANGER: Inhibition of human SJSA-1 cell growth in a cell viability assay.

NKM-1 = type: functional, cell-based;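 also: growth inhibition of NKM-1 cells, read out with a cell viability assay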
Description: SANGER: Inhibition of human NKM-1 cell growth in a cell viability assay.

CHP-212 = type: functional, cell-based
Description: SANGER: Inhibition of human CHP-212 cell growth in a cell viability assay.

HAL-01 = type: functional, cell-based;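 also: growth inhibition of human HAL-01 cells, read out with a cell viability assay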
Description: SANGER: Inhibition of human HAL-01 cell growth in a cell viability assay.

ACN = type: functional, cell-based;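 also: growth inhibition of the human ACN cell line, read out via cell viability testing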
Description: SANGER: Inhibition of human ACN cell growth in a cell viability assay.

AM-38 = type: functional, cell-based;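 also: growth inhibition of AM-38 cells of human origin, read out by a cell viability assay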
Description: SANGER: Inhibition of human AM-38 cell growth in a cell viability assay.

A4-Fuk = type: functional, cell-based;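 also: growth inhibition of A4-Fuk cells, read out by a cell viability assay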
Description: SANGER: Inhibition of human A4-Fuk cell growth in a cell viability assay.

SBC-5 = type: functional, cell-based;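 also: cell viability assay read-out, IC50 is the concentration that inhibits growth of the cells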
Description: SANGER: Inhibition of human SBC-5 cell growth in a cell viability assay.

SK-MEL-2 = type: functional, cell-based;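 also: growth inhibition of human SK-MEL-2 cells measured with a cell viability assay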
Description: SANGER: Inhibition of human SK-MEL-2 cell growth in a cell viability assay.

RS4-11 = type: functional, cell-based;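 also: growth inhibition of RS4-11 cells, read out by a cell viability assay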
Description: SANGER: Inhibition of human RS4-11 cell growth in a cell viability assay.

DJM-1 = type: functional, cell-based;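 also: growth inhibition of human DJM-1 cells, read out by a cell viability assay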
Description: SANGER: Inhibition of human DJM-1 cell growth in a cell viability assay.

Lu-65 = type: functional, cell-based;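 also: growth inhibition of Lu-65 cancer cells, read out by a cell viability assay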
Description: SANGER: Inhibition of human LU-65 cell growth in a cell viability assay.

LS-123 = type: functional, cell-based
Description: SANGER: Inhibition of human LS-123 cell growth in a cell viability assay.

HOP-62 = type: functional, cell-based;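 also: cell growth inhibition determined with a viability assay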
Description: SANGER: Inhibition of human HOP-62 cell growth in a cell viability assay.

NB10 = type: functional, cell-based;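 also: growth inhibition of NB10 cells, read out by a cell viability assay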
Description: SANGER: Inhibition of human NB10 cell growth in a cell viability assay.

OVCAR-4 = type: functional, cell-based;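 also: growth inhibition of human OVCAR-4 cells, measured with a cell viability assay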
Description: SANGER: Inhibition of human OVCAR-4 cell growth in a cell viability assay.

EW-18 = type: functional, cell-based
Description: SANGER: Inhibition of human EW-18 cell growth in a cell viability assay.

EOL1 = type: functional, cell-based
Description: SANGER: Inhibition of human EoL-1-cell cell growth in a cell viability assay.

PSN1 = type: functional, cell-based
Description: SANGER: Inhibition of human PSN1 cell growth in a cell viability assay.

NCI-H526 = type: functional, cell-based
Description: SANGER: Inhibition of human NCI-H526 cell growth in a cell viability assay.

SJRH30 = type: functional, cell-based
Description: SANGER: Inhibition of human SJRH30 cell growth in a cell viability assay.

NCI-H209 = type: functional, cell-based
Description: SANGER: Inhibition of human NCI-H209 cell growth in a cell viability assay.

HH = type: functional, cell-based
Description: SANGER: Inhibition of human HH cell growth in a cell viability assay.

Measured: pIC50

C/C(O)=C(\C#N)C(=O)Nc1cc(Br)ccc1Br
not listed: HH
< 4.80: all other assays above

Cc1nc(Nc2ncc(C(=O)Nc3c(C)cccc3Cl)s2)cc(N2CCN(CCO)CC2)n1 [DASATINIB]
7.02: GCIY
7.08: NCI-H747
7.35: PSN1
6.58: HCE-4
> 8.30: EOL1
6.78: K5
6.76: SF-268
6.85: LB2518-MEL | LS-123
7.38: SW872
6.15: QIMR-WIL
7.39: MPP-89
7.21: GI-ME-N
7.74: HOP-62
8.21: NOS-1
7.33: MFH-ino
6.91: COLO-829
6.98: TE-1
6.43: OVCAR-4
6.94: NMC-G1
not listed: OVCAR-5 | U2OS | HCT-116 | BHY | ESS-1 | MDA-MB-175-VII | DK-MG | CHP-212 | SBC-5 | SJRH30
< 5.89: all other assays above
